* marks the point of attachment. Biotin = O=C1N[C@H]2[C@H](CS[C@H]2CCCCC(=O)*)N1
Columns and labels:
[1] = test system: antibodies in sera from HCV-seropositive donors; test: ELISA with HCV antibody-positive sera (biotinylated peptides on streptavidin- or avidin-coated plates, unbiotinylated peptides coated directly); type: binding, human; settings: for PEPTIDE ELISA (O.D.): Table 12, biotinylated 20-mers; for optical density (450 nm): Table 7
Description: (§1) Where peptides were to be coated directly, stock solutions of the peptides were diluted in sodium carbonate buffer, pH 9.6 and used to coat polystyrene microtiter plates at a peptide concentration of 2 to 5 micrograms per milliliter for 1 hour at 37° C.
(§2) In cases where biotinylated peptides were to be evaluated, plates were first coated with streptavidin in sodium carbonate buffer, pH 9.6 at a concentration of 3 micrograms per milliliter for 1 hour at 37° C. The plates were then washed to remove excess, unbound protein. A working solution of the biotinylated peptide at 1 microgram per milliliter in sodium carbonate buffer was then added to the wells of the microtiter plate and incubated for 1 hours at 37° C.
(§3) Once the plates had been coated with antigen, any remaining free binding sites on the plastic were blocked with casein. After washing, a dilution of the appropriate antisera, usually 1:100, was added to the wells of the plates and incubated for 1 hour at 37° C.
(§4) After washing to remove unbound material, specific antibody binding was detected by incubating the plates with goat anti-human immunoglobulin antibodies conjugated to the enzyme horseradish peroxidase. Following removal of unbound conjugate by washing, a solution containing H2O2 and 3,3′,5,5′-tetramethylbenzidine was added.
(§5) Reactions were stopped after a suitable interval by addition of sulfuric acid. […] Absorbance measurements were made at a wavelength of 450 nanometers and all data are expressed as an optical density value at this wavelength.
The unbiotinylated peptides were adsorbed onto the wells of polystyrene microtiter plates at a concentration of 3 micrograms per milliliter.
The biotinylated peptides were bound at a concentration of 1 microgram per milliliter to streptavidin-coated microtiter plates. Sera known to contain antibodies to these peptides were used for the evaluation and were tested at a 20-fold dilution.
To investigate further the enhanced antibody recognition of biotinylated HCV peptides bound to streptavidin or avidin as compared to direct adsorption on plastic, the influence of peptide coating concentration was investigated. Three peptides (HCV peptides II, XI, and XVI) were coated in concentrations ranging from 10 nanograms per milliliter to 3 micrograms per milliliter in a volume of 200 microliters per microtiter plate well. For direct coating, the unbiotinylated versions of these peptides were used. The biotinylated versions of these peptides were used to coat wells to which streptavidin had previously been adsorbed. Sera known to contain antibodies to these peptides were used at a dilution of 1 to 100 to evaluate the magnitude of antibody binding.
(§6) Unbiotinylated HCV peptide I was coated directly onto the wells of a polystyrene ELISA plate at a concentration of 3 micrograms per milliliter in sodium carbonate buffer, pH 9.6. Biotinylated HCV peptide I was bound to streptavidin-coated wells using a stock solution containing the peptide at a concentration of 1 microgram per milliliter. The resulting plates were then incubated in parallel with a panel of sera from HCV-seropositive donors. […] Two of the sera (8326 and 8244) recognize the biotinylated version of this peptide far better than the unbiotinylated version. The specificity of the antibody reaction is also reflected by the low optical density values obtained for 5 serum samples from uninfected donors (F88, F89, F76, F136, and F6).
To determine how well biotinylated peptides would function in a mixture when bound to streptavidin- or avidin-coated plates, two mixtures were made of the N-terminally biotinylated versions of the HIV-1 peptides TM-HIV-1 (hereabove referred to as 1a.1) and V3-nm (hereabove referred to as 1b.4), the HIV-2 peptide TM-HIV-2 (hereabove referred to as 2a), and the hepatitis C virus peptides II, IX, and XVIII. […]

[2] = ELISA with seronegative / negative control sera (specificity); type: binding, human; settings: Table 7
Description: as §1, §2, §3, §4, §5, §6
To determine how well biotinylated peptides would function in a mixture when bound to streptavidin- or avidin-coated plates, two mixtures were made of the N-terminally biotinylated versions of the HIV-1 peptides TM-HIV-1 (hereabove referred to as 1a.1) and V3-nm (hereabove referred to as 1b.4), the HIV-2 peptide TM-HIV-2 (hereabove referred to as 2a), and the hepatitis C virus peptides II, IX, and XVIII. Mixture A contained each of the six biotinylated peptides at a concentration of 1 microgram per milliliter (6 micrograms per milliliter peptide, total) while in mixture B, each peptide was present at a concentration of 0.1 microgram per milliliter (0.6 microgram per milliliter peptide, total). The individual peptides were coated at a concentration of 1 microgram per milliliter. For purposes of comparison, mixtures A and B were also coated directly onto the wells of a microtiter plate. Samples from HIV-1, HIV-2, and HCV-seropositive donors were tested and compared to sera from seronegative blood donors. A cut-off absorbance value of 0.250 was used to determine whether a reaction was positive or negative. Absorbance values equal or greater than 0.250 were considered positive while absorbance values below this value were considered negative.

[3] = serum 6378, HCV antibody-positive
[4] = serum 8242, HCV antibody-positive
[5] = serum 8243, HCV antibody-positive
[6] = serum 8244, HCV antibody-positive
[7] = serum 8248, HCV antibody-positive
[8] = serum 8316, HCV antibody-positive
[9] = serum 8318, HCV antibody-positive
[10] = serum 8320, HCV antibody-positive
[11] = serum 8326, HCV antibody-positive
[12] = serum 8329, HCV antibody-positive
[13] = serum 8330, HCV antibody-positive
[14] = serum 8333, HCV antibody-positive
[15] = serum 8334, HCV antibody-positive
[16] = serum 8336, HCV antibody-positive
[17] = serum 8344, HCV antibody-positive
[18] = serum 8364, HCV antibody-positive
[19] = serum 8374, HCV antibody-positive
[20] = serum 8387, HCV antibody-positive
[21] = serum F8, HCV antibody-negative
[22] = serum F76, HCV antibody-negative
[23] = serum F88, HCV antibody-negative
[24] = serum F89, HCV antibody-negative
[25] = serum F136, HCV antibody-negative

Row | Substance | PEPTIDE ELISA (O.D.) ([1]; serum 0843) | PEPTIDE ELISA (O.D.) ([1]; serum 8240) | PEPTIDE ELISA (O.D.) ([1]; serum 8241) | PEPTIDE ELISA (O.D.) ([1]; serum 8242) | PEPTIDE ELISA (O.D.) ([1]; serum 8332) | PEPTIDE ELISA (O.D.) ([1]; serum 8339) | PEPTIDE ELISA (O.D.) ([1]; serum 8350) | PEPTIDE ELISA (O.D.) ([1]; serum 8377) | PEPTIDE ELISA (O.D.) ([1]; serum 8378) | PEPTIDE ELISA (O.D.) ([1]; serum 8388) | optical density (450 nm) [1, 3] | optical density (450 nm) [1, 4] | optical density (450 nm) [1, 5] | optical density (450 nm) [1, 6] | optical density (450 nm) [1, 7] | optical density (450 nm) [1, 8] | optical density (450 nm) [1, 9] | optical density (450 nm) [1, 10] | optical density (450 nm) [1, 11] | optical density (450 nm) [1, 12] | further results
1 | Core-7: biotinylated 20-mer, HCV core aa 37-56, SEQ ID NO:41 | 1.251 | 1.529 | 0.448 | 0.632 | 1.387 | 0.166 | 0.357 | 0.221 | 1.089 | 0.970 | – | – | – | – | – | – | – | – | – | – | –
2 | H2N-Met-Ser-Thr-Ile-Pro-Lys-Pro-Gln-Arg-Lys-Thr-Lys-Arg-Asn-Thr-Asn-Arg-Arg-Pro-Gln-CONH2 (H-MSTIPKPQRKTKRNTNRRPQ-NH2) [HCV peptide I] | – | – | – | – | – | – | – | – | – | – | 2.161 | 1.367 | 2.211 | 0.077 | 2.042 | 2.394 | 2.385 | 2.760 | 0.525 | 2.633 | optical density (450 nm) [1, 13]: 1.985; optical density (450 nm) [1, 14]: 2.143; optical density (450 nm) [1, 15]: 2.271; optical density (450 nm) [1, 16]: 1.558; optical density (450 nm) [1, 17]: 1.878; optical density (450 nm) [1, 18]: 2.705; optical density (450 nm) [1, 19]: 1.070; optical density (450 nm) [1, 20]: 1.427; optical density (450 nm) [2, 21]: 0.000; optical density (450 nm) [2, 22]: 0.000; optical density (450 nm) [2, 23]: 0.000; optical density (450 nm) [2, 24]: 0.017; optical density (450 nm) [2, 25]: 0.006
3 | H2N-Met-Ser-Thr-Ile-Pro-Lys-Pro-Gln-Arg-Lys-Thr-Lys-Arg-Asn-Thr-Asn-Arg-Arg-Pro-Gln-Gly-Gly-Lys (Bio)-CONH2 (H-MSTIPKPQRKTKRNTNRRPQGGK(Biotin)-NH2; SMILES CC[C@H](C)[C@H](NC(=O)[C@@H](NC(=O)[C@H](CO)NC(=O)[C@@H](N)CCSC)[C@@H](C)O)C(=O)N1CCC[C@H]1C(=O)N[C@@H](CCCCN)C(=O)N1CCC[C@H]1C(=O)N[C@@H](CCC(N)=O)C(=O)N[C@@H](CCCNC(=N)N)C(=O)N[C@@H](CCCCN)C(=O)N[C@H](C(=O)N[C@@H](CCCCN)C(=O)N[C@@H](CCCNC(=N)N)C(=O)N[C@@H](CC(N)=O)C(=O)N[C@H](C(=O)N[C@@H](CC(N)=O)C(=O)N[C@@H](CCCNC(=N)N)C(=O)N[C@@H](CCCNC(=N)N)C(=O)N1CCC[C@H]1C(=O)N[C@@H](CCC(N)=O)C(=O)NCC(=O)NCC(=O)N[C@@H](CCCCNC(=O)CCCC[C@@H]1SC[C@@H]2NC(=O)N[C@@H]21)C(N)=O)[C@@H](C)O)[C@@H](C)O) [HCV peptide I carboxy-biotinylated] | – | – | – | – | – | – | – | – | – | – | 2.531 | 2.389 | 2.541 | 1.399 | 2.493 | 2.541 | 2.404 | 2.762 | 1.775 | 2.672 | optical density (450 nm) [1, 13]: 2.651; optical density (450 nm) [1, 14]: 2.545; optical density (450 nm) [1, 15]: 2.549; optical density (450 nm) [1, 16]: 2.016; optical density (450 nm) [1, 17]: 2.010; optical density (450 nm) [1, 18]: 2.705; optical density (450 nm) [1, 19]: 2.151; optical density (450 nm) [1, 20]: 2.628; optical density (450 nm) [2, 21]: 0.000; optical density (450 nm) [2, 22]: 0.022; optical density (450 nm) [2, 23]: 0.026; optical density (450 nm) [2, 24]: 0.001; optical density (450 nm) [2, 25]: 0.002
4 | HCV-7: biotinylated 20-mer, HCV NS4 aa 1724-1743, SEQ ID NO:55 | 2.251 | 1.963 | 0.968 | 1.252 | 0.945 | 0.041 | 0.598 | 1.829 | 2.006 | 2.504 | – | – | – | – | – | – | – | – | – | – | antibody binding to the 20-mers ([1]; serum 8241): Moderate binding
5 | NS5-25: biotinylated 20-mer, HCV NS5 aa 2263-2282, SEQ ID NO:59 | 0.062 | 0.054 | 0.050 | 0.260 | 0.047 | 1.495 | 0.069 | 1.092 | 0.279 | 0.055 | – | – | – | – | – | – | – | – | – | – | –

— US6667387B1, “HCV core peptides” (priority 1992, dated 2003)
